The experiment deals with SMCs in relation to ECs. The experiment can be described thus: activity ratio: efficiency towards SMCs / efficiency towards ECs. The class given is cell-based. Conditions: activity ratio class; order in Table 1 follows the calculated values. As to the method: For determination of vascular SMC proliferation, 0.5×10^4 viable rat aortic SMCs per well were seeded in SMC growth medium (DMEM/F12 medium with 20% serum, 30 μg/mL Gentamicin and 15 ng/mL Amphotericin) in 96-well plates. 24 h later, the medium was removed, the cells were washed once with SMC starvation medium (DMEM/F12 medium with 0.1% serum, 0.2% BSA, 30 μg/mL Gentamicin and 15 ng/mL Amphotericin) and incubated in starvation medium for further 24 h.
The quiescent cells were then pretreated for 30 min with the test compounds and induced to proliferate with 20 ng/mL platelet-derived growth factor (PDGF). Unstimulated cells were utilized for normalization and estimation of the basal level of proliferation. The final concentration of the solvent vehicle, dimethyl sulfoxide (DMSO), was the same (0.1%) in all wells. 48 h later, the SMC proliferation was quantified by resazurin dye conversion for 2 h as previously described (H. Joa et al., J. Nat. Prod. 74(6), 1513-6 (2011)).
For determination of endothelial cell proliferation, 0.5×10^4 HUVECtert immortalized human umbilical vein endothelial cells (H. B. Schiller et al., Mol. Biol. Cell. 20(3), 745-756 (2009)) were seeded in 96-well plates for 24 h in HUVEC Complete Medium (EBM™ growth medium supplemented with 10% fetal bovine serum, EBM™ SingleQuots (Lonza, Basel, Switzerland), 100 U/mL benzylpenicillin, 100 μg/mL streptomycin, and 1% amphotericin). Afterwards, the medium was exchanged with fresh HUVEC Complete Medium and cells were treated with the indicated compounds for 48 h. After the end of the incubation period, the medium was removed, the cells were washed once with 200 μL/well PBS, and treated with 150 μL HUVEC Complete Medium containing 10 μg/mL resazurin. 2 h later, the fluorescence was measured at a wavelength of 580 nm, with excitation wavelength 535 nm in a 96-well plate reader (Tecan GENios Pro; Tecan Group Ltd., Mannedorf, Switzerland).
In every case, the percentage of viable cells was subtracted from 1, in order to obtain a measure of efficiency of the test compounds towards each particular type of cells, and subsequently, the efficiency quotient towards SMCs and ECs was calculated and taken as the “activity ratio” and thus as a measure of selective efficiency of each test compound towards SMCs in relation to ECs. For example, the synthetic Leoligin with the bio ID 2418 prepared in Comparative Example 27 as compound 10-22 gave the following results:
Due to the usual fluctuations in determining surviving cells, which amount to approximately ±10%, and due to the relatively strong resulting fluctuations in calculating quotients—especially if the inhibitory effect of said novel compounds towards ECs is very poor—said threshold value of 1.50 for the activity ratio, as already mentioned above, was introduced.
In the following, a table listing every compound prepared in examples and comparative Examples for which an activity ratio (a.r.) of >1.0 was determined, is given.

Molecules are shown by their SMILES.

As for `COc1ccc([C@H]2OC[C@H](Cc3ccc(C)cc3)[C@@H]2CO)cc1OC` [Example 2, ((2S,3R,4R)-2-(3,4-dimethoxyphenyl)-4-(4-methylbenzyl)tetrahydrofuran-3-yl)-methanol], the a.r. code result is “AAA (a.r. ≧ 5.0)”.
The value for `COc1ccc([C@H]2OC[C@H](Cc3cccc4ccccc34)[C@@H]2CO)cc1OC` [Example 3, ((2S,3R,4R)-2-(3,4-dimethoxyphenyl)-4-(naphthalen-1-ylmethyl)tetrahydro-furan-3-yl)methanol] was “AA (a.r. ≧ 2.0)”; that for `COc1ccc([C@H]2OC[C@H](Cc3ccc(C(F)(F)F)cc3)[C@@H]2CO)cc1OC` [Example 4, ((2S,3R,4R)-2-(3,4-dimethoxyphenyl)-4-(4-(trifluoromethyl)benzyl)tetrahydro-furan-3-yl)methanol] was “A (a.r. ≧ 1.50)”.
The value for `CCCCc1ccc(C[C@H]2CO[C@H](c3ccc(OC)c(OC)c3)[C@H]2CO)cc1` [Example 5, ((2S,3R,4R)-4-(4-butylbenzyl)-2-(3,4-dimethoxyphenyl)tetrahydrofuran-3-yl)-methanol] was “AA (a.r. ≧ 2.0)”; that for `COc1ccc([C@H]2OC[C@H](Cc3ccc(C(C)(F)F)cc3)[C@@H]2CO)cc1OC` [Example 6, ((2S,3R,4R)-4-(4-(1,1-difluoroethyl)benzyl)-2-(3,4-dimethoxyphenyl)tetrahydro-furan-3-yl)methanol] was “AA (a.r. ≧ 2.0)”; that for `COc1cc([C@H]2OC[C@H](Cc3ccccc3)[C@@H]2CO)cc(OC)c1OC` [Example 7, ((2S,3R,4R)-4-benzyl-2-(3,4,5-trimethoxyphenyl)tetrahydrofuran-3-yl)methanol] was “AAA (a.r. ≧ 5.0)”.
The value for `COc1cc([C@H]2OC[C@H](Cc3ccc(C(F)(F)F)cc3)[C@@H]2CO)cc(OC)c1OC` [Example 8, ((2S,3R,4R)-4-(4-(trifluoromethyl)benzyl)-2-(3,4,5-trimethoxyphenyl)tetrahydro-furan-3-yl)methanol] was “AAA (a.r. ≧ 5.0)”; that for `COc1cc([C@H]2OC[C@H](Cc3ccc(-c4ccccc4)cc3)[C@@H]2CO)cc(OC)c1OC` [Example 9, ((2S,3R,4R)-4-([1,1′-biphenyl]-4-ylmethyl)-2-(3,4,5-trimethoxyphenyl)-tetrahydrofuran-3-yl)methanol] was “AA (a.r. ≧ 2.0)”; that for `C/C=C(/C)C(=O)OC[C@H]1[C@@H](Cc2ccc(C(C)(C)C)cc2)CO[C@@H]1c1ccc(OC)c(OC)c1` [Example 10, (Z)-((2S,3R,4R)-4-(4-(tert-butyl)benzyl)-2-(3,4-dimethoxyphenyl)tetrahydro-furan-3-yl)methyl 2-methylbut-2-enoate] was “AA (a.r. ≧ 2.0)”.
As for `C/C=C(/C)C(=O)OC[C@H]1[C@@H](Cc2ccc(C(=O)OCC)cc2)CO[C@@H]1c1ccc(OC)c(OC)c1` [Example 11, ethyl 4-(((3R,4R,5S)-5-(3,4-dimethoxyphenyl)-4-((((Z)-2-methylbut-2-enoyl)-oxy)methyl)tetrahydrofuran-3-yl)methyl)benzoate], the a.r. code result is “A (a.r. ≧ 1.50)”.
To `C/C=C(/C)C(=O)OC[C@H]1[C@@H](Cc2ccccn2)CO[C@@H]1c1ccc(OC)c(OC)c1` [Example 12, (Z)-((2S,3R,4R)-2-(3,4-dimethoxyphenyl)-4-(pyridin-2-ylmethyl)tetrahydro-furan-3-yl)methyl 2-methylbut-2-enoate] belongs “AAA (a.r. ≧ 5.0)”.
The value for `C/C=C(/C)C(=O)OC[C@H]1[C@@H](Cc2ccc(CCCC)cc2)CO[C@@H]1c1ccc(OC)c(OC)c1` [Example 13, (Z)-((2S,3R,4R)-4-(4-butylbenzyl)-2-(3,4-dimethoxyphenyl)tetrahydrofuran-3-yl)methyl 2-methylbut-2-enoate] was “AAA (a.r. ≧ 5.0)”.
To `C/C=C(/C)C(=O)OC[C@H]1[C@@H](Cc2ccc(C(C)(F)F)cc2)CO[C@@H]1c1ccc(OC)c(OC)c1` [Example 14, (Z)-((2S,3R,4R)-4-(4-(1,1-difluoroethyl)benzyl)-2-(3,4-dimethoxyphenyl)tetra-hydrofuran-3-yl)methyl 2-methylbut-2-enoate] belongs “A (a.r. ≧ 1.50)”; to `C/C=C(/C)C(=O)OC[C@H]1[C@@H](Cc2ccc(C(F)(F)F)cc2)CO[C@@H]1c1ccc(F)cc1` [Example 15, (Z)-((2S,3R,4R)-2-(4-fluorophenyl)-4-(4-(trifluoromethyl)benzyl)tetrahydro-furan-3-yl)methyl 2-methylbut-2-enoate], “AAA (a.r. ≧ 5.0)”; to `C/C=C(/C)C(=O)OC[C@H]1[C@@H](Cc2ccc(C(F)(F)F)cc2)CO[C@@H]1c1ccccc1` [Example 16, (Z)-((2S,3R,4R)-2-phenyl-4-(4-(trifluoromethyl)benzyl)tetrahydrofuran-3-yl)-methyl 2-methylbut-2-enoate], “AAA (a.r. ≧ 5.0)”.
`C/C=C(/C)C(=O)OC[C@H]1[C@@H](Cc2ccc(F)cc2)CO[C@@H]1c1ccc(F)cc1` [Example 17, (Z)-((2S,3R,4R)-4-(4-fluorobenzyl)-2-(4-fluorophenyl)tetrahydrofuran-3-yl)-methyl 2-methylbut-2-enoate]: the a.r. code result is “AAA (a.r. ≧ 5.0)”.
The value for `C/C=C(/C)C(=O)OC[C@H]1[C@@H](Cc2ccc(C(C)(C)C)cc2)CO[C@@H]1c1ccc(F)cc1` [Example 18, (Z)-((2S,3R,4R)-4-(4-(tert-butyl)benzyl)-2-(4-fluorophenyl)tetrahydrofuran-3-yl)methyl 2-methylbut-2-enoate] was “AAA (a.r. ≧ 5.0)”.
The value for `COc1ccc(C[C@H]2CO[C@H](c3cc(OC)c(OC)c(OC)c3)[C@H]2COC(=O)C=C(C)C)cc1OC` [Example 19, ((2S,3R,4R)-4-(3,4-dimethoxybenzyl)-2-(3,4,5-trimethoxyphenyl)tetrahydro-furan-3-yl)methyl 3-methylbut-2-enoate] was “AAA (a.r. ≧ 5.0)”; that for `C/C=C(/C)C(=O)OC[C@H]1[C@@H](Cc2ccc(C(C)(C)C)cc2)CO[C@@H]1c1cc(OC)c(OC)c(OC)c1` [Example 20, (Z)-((2S,3R,4R)-4-(4-(tert-butyl)benzyl)-2-(3,4,5-trimethoxyphenyl)tetrahydro-furan-3-yl)methyl 2-methylbut-2-enoate] was “AA (a.r. ≧ 2.0)”.
The value for `C/C=C(/C)C(=O)OC[C@H]1[C@@H](Cc2ccc(C(C)=O)cc2)CO[C@@H]1c1cc(OC)c(OC)c(OC)c1` [Example 21, (Z)-((2S,3R,4R)-4-(4-acetylbenzyl)-2-(3,4,5-trimethoxyphenyl)tetrahydrofuran-3-yl)methyl 2-methylbut-2-enoate] was “AA (a.r. ≧ 2.0)”.
In the case of `C/C=C(/C)C(=O)OC[C@H]1[C@@H](Cc2ccc(C(=O)OCC)cc2)CO[C@@H]1c1cc(OC)c(OC)c(OC)c1` [Example 22, ethyl 4-(((3R,4R,5S)-4-((((Z)-2-methylbut-2-enoyl)oxy)methyl)-5-(3,4,5-trimethoxyphenyl)tetrahydrofuran-3-yl)methyl)benzoate], the a.r. code result is listed as “AA (a.r. ≧ 2.0)”.
To `C/C=C/C(=O)OC[C@H]1[C@@H](Cc2ccc(OC)c(OC)c2)CO[C@@H]1c1ccc(OC)c(OC)c1` [Example 23, (E)-((2S,3R,4R)-4-(3,4-dimethoxybenzyl)-2-(3,4-dimethoxyphenyl)tetrahydro-furan-3-yl)methyl but-2-enoate] belongs “AA (a.r. ≧ 2.0)”.

The values above are taken from patent US20170157301A1, “LEOLIGIN DERIVATIVES AS SMOOTH MUSCLE CELL PROLIFERATION INHIBITORS” (TECHNISCHE UNIVERSITAET WIEN, priority 2014, published 2017).
